Experimental data reported in publication PMC6983991, “Toxicity and Anti-promastigote Activity of Benzoxazinoid Analogs Against Leishmania (Viannia) braziliensis and Leishmania (Leishmania) infantum” (Advanced Pharmaceutical Bulletin, 2019).
Converted amounts (≈) assume the structure as drawn. Like-named read-outs stand apart in the source and are kept apart here.

Columns and labels:
[1] = tested on: Streptococcus mutans; parameters: method as in PMID 16042337; conditions: microdilution broth assays; cited from earlier work
[2] = tested on: Staphylococcus aureus; parameters: method as in PMID 16042337; conditions: microdilution broth assays; cited from earlier work
[3] = tested on: Escherichia coli; parameters: method as in PMID 16042337; conditions: microdilution broth assays; cited from earlier work
[4] = tested on: Leishmania (L.) infantum (MHOM/BR/74/PP75) promastigotes; assay: Anti-promastigote activity, MTT colorimetric assay; assay type: cell-based
Experimental: (§1) Promastigotes of Leishmania (V.) braziliensis (MHOM/BR/75/M2903) and Leishmania (L.) infantum (MHOM/BR/74/PP75) were grown in a biphasic medium. The solid phase was composed of Nicolle–Novy–MacNeals (NNN) medium with 15% defibrillated rabbit blood. Already in the liquid phase, we employed Roswell Park Memorial Institute (RPMI)-1640 (Sigma-Aldrich, St. Louis, USA) or Liver Infusion Tryptose (LIT) medium with 15% fetal bovine serum (Gibco – Thermo Fisher Scientific, Waltham USA), both supplemented with 1% of penicillin-streptomycin antibiotic solutions (10.000 U/mL of penicillin and 10.000 μg/mL of streptomycin; Gibco – Thermo Fisher Scientific, Waltham, USA). Cultures were maintained in an incubator at 25°C until parasites reached logarithmic phase (4 days). Next, the cultures were centrifuged and the pellet was suspended in RPMI-1640 or LIT for counting promastigotes using a Neubauer hemocytometer under an optical microscope (Axiostar Plus Carl Zeiss, Jena, Germany) at 400x magnification. Subsequently, parasites were diluted in RPMI-1640 or LIT medium at a final concentration of 1 x 10^6parasites/mL for use in antileishmanial assays.
(§2) The 50% inhibitory concentration (IC50) against L. (V.) braziliensis and L. (L.) infantum was evaluated by determination of the parasite viability using the colorimetric 3-(4,5-dimethylthiazol-2-yl)-2,5-diphenyltetrazolium bromide (MTT) method.[19] Initially, 100 μL of the promastigote suspension prepared in RPMI-1640 or LIT medium (1 × 10^6cells/mL) was added in each well of the 96-well microplate. Parasites were then treated with two-fold serial dilutions (from 3.12 to 400 µg/mL) of Bex-derived analogs prepared in 10% dimethyl sulfoxide (DMSO) (Sigma-Aldrich, St. Louis, USA) and the microplates were incubated at 25°C for 48 h. Next, 20 μL of MTT solution at 5 mg/mL (Sigma-Aldrich, St. Louis, USA) was added to the parasite cultures and the plates were covered with laminated paper and incubated at 37°C for 4 h. Finally, the plates were centrifuged at 1500 rpm for 15 min at 4°C (Heraeus-Megafuge 11R Centrifuge - Thermo Fisher Scientific, Waltham USA) and the formazan crystals formed were dissolved by the addition of 200 μL 10% DMSO. After further incubation for 5 min at room temperature, absorbance at 570 nm of samples measured using a microplate reader (Metller Toledo, Brazil). Meglumine antimoniate (Glucantime®Sanofi-aventis, France) and amphotericin B (Eurofarma, Brazil) were included as positive controls, and 10% DMSO solution was used as a solvent control. Samples containing RPM1-1640 or LIT only were used to control the sterility of media and samples containing inoculum and medium, but not compounds, were employed as growth controls.

[5] = tested on: Leishmania (V.) braziliensis (MHOM/BR/75/M2903) promastigotes; assay: Anti-promastigote activity, MTT colorimetric assay; assay type: cell-based
Experimental: as §1, §2

[6] = Cytotoxicity, MTT assay; assay type: cell-based; conditions: hamster spleen cells, 48 h exposure
Experimental: (§3) Hamster spleen cells were used to test cytotoxicity. The cells were kindly provided by Dr. Rosy Iara Maciel de Azambuja Ribeiro from of Laboratory of Experimental Pathology/UFSJ. The cells were cultivated in saline solution (NaCl 0.9%; Synth, Brazil) and maintained at 37°C in an incubator with an atmosphere containing 5% CO2 (Thermo Fisher Scientific, Waltham, USA).
(§4) Cytotoxic concentration determinations for 50% of the cells in culture (CC50) were evaluated by using the colorimetric 3-(4,5-dimethylthiazol-2-yl)-2,5-diphenyltetrazolium bromide (MTT) method, following protocols outlined in a previous study.[19] Briefly, spleen cells were exposed for 48h to several concentrations of compounds (3, 6.25, 12.5, 25, 50, 100, 200, 400 and 800 µg/mL) and, afterward, the MTT assay was used to quantify the cell viability as was done using the anti-promastigote assay. Finally, CC50 values were calculated by linear regression analysis of absorbance values obtained previously.[20]
(§5) The selectivity of Bex analogs and antileishmanial agents was determined to evaluate the safety of compounds. Thus, the selectivity index (SI) was calculated through the ratio between the CC50 of compounds against the hamster spleen cells and the geometric mean (GM) of IC50 values calculated for L. (V.) braziliensis and L. (L.) infantum.[21] In the case where CC50 was higher than the highest concentration tested of the compound, to calculate the SI, the value used was 400. The larger SI was indicative of a safer molecule.

[7] = tested on: Klebsiella pneumoniae; parameters: method as in PMID 26166773; conditions: disc diffusion, 2 mg/disk; cited from earlier work
[8] = tested on: Bacillus subtilis; parameters: method as in PMID 26166773; conditions: disc diffusion, 2 mg/disk; cited from earlier work
[9] = tested on: S. aureus methicillin-resistant; parameters: method as in PMID 26166773; conditions: disc diffusion, 2 mg/disk; cited from earlier work
[10] = tested on: Enterococcus faecalis; parameters: method as in PMID 26166773; conditions: disc diffusion, 2 mg/disk; cited from earlier work
[11] = tested on: E. coli extended-spectrum β-lactamases produced; parameters: method as in PMID 26166773; conditions: disc diffusion, 2 mg/disk; cited from earlier work
[12] = tested on: Pseudomonas aeruginosa; parameters: method as in PMID 26166773; conditions: disc diffusion, 2 mg/disk; cited from earlier work
[13] = tested on: Hamster spleen cells; assay: Cytotoxicity, MTT assay; assay type: cell-based; conditions: 48 h exposure
Experimental: as §3, §4, §5

[14] = tested on: rat mast cells stimulated with concanavalin A and sensitized with immunoglobulin E; parameters: method as in PMID 2453615; conditions: cited from earlier work
[15] = tested on: reverse transcriptase from human immunodeficiency virus(HIV); conditions: cited from earlier work
[16] = promastigotes, LIT medium, 48 h, 25°C, MTT, read-out: IC50 L. infantum LIT
[17] = promastigotes, RPMI-1640 medium, 48 h, 25°C, MTT, read-out: IC50 L. infantum RPMI-1640
[18] = promastigotes, LIT medium, 48 h, 25°C, MTT, read-out: IC50 L. braziliensis LIT
[19] = promastigotes, RPMI-1640 medium, 48 h, 25°C, MTT, read-out: IC50 L. braziliensis RPMI-1640
[20] = geometric mean of IC50 in LIT and RPMI-1640, read-out: GM (geometric mean of IC50 values) L. infantum
[21] = geometric mean of IC50 in LIT and RPMI-1640, read-out: GM (geometric mean of IC50 values) L. braziliensis
[22] = geometric mean of IC50 in LIT and RPMI-1640
[23] = promastigotes, LIT medium, 48 h, 25°C, MTT
[24] = promastigotes, RPMI-1640 medium, 48 h, 25°C, MTT

Molecule | IC50 [4, 16] | IC50 [4, 17] | IC50 [5, 18] | IC50 [5, 19] | IC50 [4, 20] | IC50 [5, 21] | CC50 at 48 h [6] | other results
O=C1C(O)Oc2ccccc2N1O (centres unmarked) [DIBOA, 2,4-dihydroxy-1,4-benzoxazin-3-one] | – | – | – | – | – | – | – | Concentration exhibiting antibacterial effects [1]: 500 µg/mL; Concentration exhibiting antibacterial effects [2]: 500 µg/mL; Concentration exhibiting antibacterial effects [3]: 1,000 μg/mL
O=C1COc2ccccc2N1O [Bex1] | 174 ± 3.39 µg/mL (≈ 1050 µM) | 188 ± 3.58 µg/mL (≈ 1140 µM) | 212 ± 6.04 µg/mL (≈ 1280 µM) | 238 ± 6.57 µg/mL (≈ 1440 µM) | – | – | – | –
CCC1Oc2ccccc2N(O)C1=O (centres unmarked) [Bex3] | 89 ± 6.43 µg/mL (≈ 461 µM) | 93 ± 6.48 µg/mL (≈ 481 µM) | 92 ± 6.19 µg/mL (≈ 476 µM) | 97 ± 6.24 µg/mL (≈ 502 µM) | 91 µg/mL (≈ 471 µM) | 94.5 µg/mL (≈ 489 µM) | 106 ± 2.26 µg/mL (≈ 547 µM) | –
COc1ccc2c(c1)OC(O)C(=O)N2O (centres unmarked) [DIMBOA, 2,4-dihydroxy-7-methoxy-1,4-benzoxazin-3-one] | – | – | – | – | – | – | – | Antibacterial activity [7]: active; Antibacterial activity [8]: active; Antibacterial activity [9]: active; Antibacterial activity [10]: active; Antibacterial activity [11]: active; Antibacterial activity [12]: active
CCC1Oc2cccnc2N(O)C1=O (centres unmarked) [Pyr3] | 149 ± 6.35 µg/mL (≈ 767 µM) | 160 ± 6.62 µg/mL (≈ 824 µM) | 141 ± 5.94 µg/mL (≈ 726 µM) | 152 ± 6.17 µg/mL (≈ 783 µM) | – | – | – | –
CCCC1Oc2cccnc2N(O)C1=O (centres unmarked) [Pyr4] | 91 ± 6 µg/mL (≈ 437 µM) | 95 ± 6.05 µg/mL (≈ 456 µM) | 98 ± 5.94 µg/mL (≈ 471 µM) | 103 ± 5.99 µg/mL (≈ 495 µM) | 93 µg/mL (≈ 447 µM) | 100 µg/mL (≈ 483 µM) | 202 ± 2.11 µg/mL (≈ 969 µM) | –
Meglumine antimoniate [reference compound] | – | – | – | – | – | – | – | GM (geometric mean of IC50 values) L. infantum [4, 22]: 99.47 µg/mL; IC50 L. infantum LIT [4, 23]: 97 ± 3.14 µg/mL; IC50 L. infantum RPMI-1640 [4, 24]: 102 ± 3.54 µg/mL; GM (geometric mean of IC50 values) L. braziliensis [5, 22]: 97.5 µg/mL; IC50 L. braziliensis LIT [5, 23]: 97 ± 4.34 µg/mL; IC50 L. braziliensis RPMI-1640 [5, 24]: 98 ± 4.45 µg/mL; CC50 [13]: >400 µg/mL
CC1Oc2ccccc2N(O)C1=O (centres unmarked) [Bex2] | 106 ± 5.61 µg/mL (≈ 592 µM) | 111 ± 5.69 µg/mL (≈ 620 µM) | 103 ± 4.36 µg/mL (≈ 575 µM) | 109 ± 4.44 µg/mL (≈ 608 µM) | 108 µg/mL (≈ 605 µM) | 106 µg/mL (≈ 591 µM) | 274.3 ± 1.87 µg/mL (≈ 1530 µM) | –
CCCCC1Oc2cccnc2N(O)C1=O (centres unmarked) [Pyr5] | 135 ± 4.13 µg/mL (≈ 607 µM) | 143 ± 4.25 µg/mL (≈ 643 µM) | 142 ± 3.67 µg/mL (≈ 639 µM) | 154 ± 3.85 µg/mL (≈ 693 µM) | – | – | – | –
CC1Oc2cccnc2N(O)C1=O (centres unmarked) [Pyr2] | 112 ± 5.34 µg/mL (≈ 622 µM) | 118 ± 5.45 µg/mL (≈ 655 µM) | 100 ± 5.18 µg/mL (≈ 555 µM) | 105 ± 5.23 µg/mL (≈ 583 µM) | 115 µg/mL (≈ 638 µM) | 102 µg/mL (≈ 569 µM) | > 400 µg/mL | –
COc1ccc2c(c1)OC(O)C(=O)N2 (centres unmarked) [HMBOA] | – | – | – | – | – | – | – | Effect on levels of histamine released from rat mast cells [14]: able to reduce levels of histamine
O=c1[nH]c2ccccc2o1 [BOA, benzoxazolin-2-one] | – | – | – | – | – | – | – | Concentration exhibiting antibacterial effects [1]: 500 µg/mL; Concentration exhibiting antibacterial effects [2]: 500 µg/mL; Concentration exhibiting antibacterial effects [3]: 1,000 μg/mL
COc1ccc2[nH]c(=O)oc2c1 [MBOA, 6-methoxy-benzoxazolin-2-one] | – | – | – | – | – | – | – | Effect on levels of histamine released from rat mast cells [14]: able to reduce levels of histamine; Inhibition of HIV reverse transcriptase [15]: able to inhibit
O=C1Nc2ccccc2OC1O (centres unmarked) [HBOA, 2-hydroxy-1,4-benzoxazin-3-one] | – | – | – | – | – | – | – | Concentration exhibiting antibacterial effects [1]: 500 µg/mL; Concentration exhibiting antibacterial effects [2]: 500 µg/mL; Effect on levels of histamine released from rat mast cells [14]: able to reduce levels of histamine; Concentration exhibiting antibacterial effects [3]: 1,000 μg/mL
O=C1COc2cccnc2N1O [Pyr1] | 99 ± 5.61 µg/mL (≈ 596 µM) | 103 ± 5.64 µg/mL (≈ 620 µM) | 108 ± 5.91 µg/mL (≈ 650 µM) | 115 ± 6.04 µg/mL (≈ 692 µM) | 101 µg/mL (≈ 608 µM) | 111 µg/mL (≈ 671 µM) | > 400 µg/mL | –
C[C@@H]1[C@H](O)[C@@H](C)/C=C/C=C/C=C/C=C/C=C/C=C/C=C/[C@H](O[C@@H]2O[C@H](C)[C@@H](O)[C@H](N)[C@@H]2O)C[C@@H]2O[C@](O)(C[C@@H](O)C[C@@H](O)[C@H](O)CC[C@@H](O)C[C@@H](O)CC(=O)O[C@H]1C)C[C@H](O)[C@H]2C(=O)O [ANFO, Amphotericin B, reference compound] | 41.6 ± 4.27 µg/mL (≈ 45.1 µM) | 41.5 ± 0.99 µg/mL (≈ 44.9 µM) | 33.3 ± 3.66 µg/mL (≈ 36 µM) | 33.4 ± 3.01 µg/mL (≈ 36.1 µM) | 41.5 µg/mL (≈ 45 µM) | 33.4 µg/mL (≈ 36.1 µM) | 89.3 ± 2.24 µg/mL (≈ 96.7 µM) | –
